# From US11414424B2, “Cardiac sarcomere inhibitors” (Cytokinetics, Inc., priority 2018, dated 2022)
# Tested on: bovine cardiac myofibrils
# Assay: Myofibril assay: PK/LDH-coupled steady-state ATPase activity of skinned bovine cardiac myofibrils
# Format: biochemical
# Details: Ca2+ activating to 75% of maximal rate
# In short: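 Steady-state ATPase of detergent-skinned bovine left-ventricular myofibrils (1 mg/mL), PK/LDH-coupled NADH read at 340 nm, in PIPES/MgCl2 buffer pH 6.8 with 50 μM ATP, 0.6 mM EGTA and CaCl2 set for 50% or 75% activation. Inhibition of activity measured.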
row,SMILES,CDMF75 IC15
1,"CC(=O)NCC1(C)C(=O)N(c2ncc(Cl)cc2F)CC(=O)N1Cc1ccc(C(F)(F)F)cc1 (racemic) [Compound 630, N-((4-(5-chloro-3-fluoropyridin-2-yl)-2-methyl-3,6-dioxo-1-(4-(trifluoromethyl)benzyl)piperazin-2-yl)methyl)acetamide]",18.7 µM
2,"CC(C)N1CC(=O)N(Cc2ccc(Cl)cc2)C2(CN(c3ccnc(C#N)c3)C2)C1=O [Compound 27, 4-(5-(4-chlorobenzyl)-8-isopropyl-6,9-dioxo-2,5,8-triazaspiro[3.5]nonan-2-yl)picolinonitrile]",8.6 µM
3,"CC(C)N1CC(=O)N(Cc2ccc(Cl)cc2)C2(CCN(c3cc(C#N)ccn3)C2)C1=O (stereo not drawn) [Compound 95, 2-(6-(4-chlorobenzyl)-9-isopropyl-7,10-dioxo-2,6,9-triazaspiro[4.5]decan-2-yl)isonicotinonitrile]",5.0 µM
4,"COC(=O)N1CCC2(C1)C(=O)N(C(C)C)CC(=O)N2Cc1ccc(C(F)(F)F)cc1 (stereo not drawn) [Compound 110, methyl 9-isopropyl-7,10-dioxo-6-(4-(trifluoro-methyl)benzyl)-2,6,9-triazaspiro[4.5]decane-2-carboxylate]",34.4 µM
5,"N#Cc1ccc(N2CC(=O)N(Cc3ccc(C(F)(F)F)cc3)[C@]3(CCN(C(=O)C4CC4)C3)C2=O)c(F)c1 [Compound 219, (S)-4-(2-(cyclopropane-carbonyl)-7,10-dioxo-6-(4-(trifluoromethyl)benzyl)-2,6,9-triazaspiro[4.5]decan-9-yl)-3-fluorobenzonitrile]",0.4 µM
6,"Cc1cc(N2CCC3(C2)C(=O)N(C(C)C)CC(=O)N3Cc2ccc(C(F)(F)F)cc2)cc(C)n1 (stereo not drawn) [Compound 77, 2-(2,6-dimethylpyridin-4-yl)-9-isopropyl-6-(4-(trifluoromethyl)benzyl)-2,6,9-triazaspiro[4.5]-decane-7,10-dione]",13.0 µM
7,"Cc1cc(Cl)cnc1N1CC(=O)N(Cc2ccc(F)c(Cl)c2)C(C2COC2)C1=O (stereo not drawn) [Compound 717, 1-(5-chloro-3-methyl-pyridin-2-yl)-4-(3-chloro-4-fluorobenzyl)-3-(oxetan-3-yl)piperazine-2,5-dione]",7.3 µM
8,"Cc1cc(N2CC3(C2)C(=O)N(C(C)C)CC(=O)N3Cc2ccc(Cl)cc2)ccn1 [Compound 10, 5-(4-chlorobenzyl)-8-isopropyl-2-(2-methyl-pyridin-4-yl)-2,5,8-triazaspiro[3.5]nonane-6,9-dione]",5.2 µM
9,"N#Cc1ccc(N2CC(=O)N(Cc3ccc(C(F)(F)F)cc3)C3(CN(C=O)C3)C2=O)cc1 [Compound 190, 4-(2-formyl-6,9-dioxo-5-(4-(trifluoromethyl)benzyl)-2,5,8-triazaspiro[3.5]nonan-8-yl)benzonitrile]",4.0 µM
10,"CC(C)N1CC(=O)N(Cc2ccc(C#N)cc2)C(c2ccc(Cl)cc2)C1=O (stereo not drawn) [Compound 307, 4-((2-(4-chlorophenyl)-4-isopropyl-3,6-dioxo-piperazin-1-yl)methyl)-benzonitrile]",36.7 µM
11,"COCC1C(=O)N(Cc2ccc(Cl)cc2)C2(CN(c3ccc(C#N)cn3)C2)C(=O)N1C(C)C (stereo not drawn) [Compound 347, 6-(5-(4-chlorobenzyl)-8-isopropyl-7-(methoxymethyl)-6,9-dioxo-2,5,8-triazaspiro[3.5]nonan-2-yl)nicotinonitrile]",26.4 µM
12,"Cc1cc(Cl)cnc1N1CC(=O)N(Cc2ccc(Cl)c(F)c2)C(C2COC2)C1=O (stereo not drawn) [Compound 730, 4-(4-chloro-3-fluoro-benzyl)-1-(5-chloro-3-methylpyridin-2-yl)-3-(oxetan-3-yl)-piperazine-2,5-dione]",3.4 µM
13,"O=C1C(C2COC2)N(Cc2ccc(C(F)(F)F)cc2)C(=O)CN1c1ncc(Cl)cc1F (single isomer, unassigned) [Compound 861B, 1-(5-chloro-3-fluoropyridin-2-yl)-3-(oxetan-3-yl)-4-(4-(trifluoromethyl)benzyl)piperazine-2,5-dione]",5.8 µM
14,"NC(=O)C12CC([C@@H]3C(=O)N(c4ncc(Cl)cc4F)CC(=O)N3Cc3ccc(C(F)F)cc3)(C1)C2 [Compound 822, (R)-3-(4-(5-chioro-3-fluoropyridin-2-yl)-3,6-dioxo-1-(4-(difluoro-methyl)benzyl)piperazin-2-yl)bicyclo[1.1.1]pentane-1-carboxamide]",>39 µM
15,"Cc1nc([C@H]2C[C@]3(C2)C(=O)N(C(C)C)CC(=O)N3Cc2ccc(C(F)(F)F)cc2)oc1C (single isomer, unassigned) [Compound 500B]",35.5 µM
16,"CNc1c(C(=O)OC)cccc1N1CC2(C1)C(=O)N(c1ccc(C#N)cc1F)CC(=O)N2Cc1ccc(C(F)(F)F)cc1 [Compound 546, methyl 3-(8-(4-cyano-2-fluorophenyl)-6,9-dioxo-5-(4-(trifluoromethyl)benzyl)-2,5,8-triazaspiro[3.5]nonan-2-yl)-2-(methylamino)-benzoate]",1.0 µM
17,"CC(C)N1CC(=O)N(Cc2ccc(Cl)cc2)C2(CCN(c3cc(C(N)=O)ccn3)C2)C1=O (stereo not drawn) [Compound 97, 2-(6-(4-chlorobenzyl)-9-isopropyl-7,10-dioxo-2,6,9-triazaspiro[4.5]decan-2-yl)isonicotinamide]",3.1 µM

# Continued, values first:
row,CDMF75 IC15,SMILES
1,0.8 µM,"CC(C)N1CC(=O)N(Cc2ccc(Cl)cc2)C2(CCN(c3ccccc3)C2)C1=O (stereo not drawn) [Compound 127, 6-(4-chlorobenzyl)-9-isopropyl-2-phenyl-2,6,9-triazaspiro[4.5]decane-7,10-dione]"
2,2.8 µM,"CNC(=O)N1CC2(C1)C(=O)N(c1ccc(F)c(F)c1)CC(=O)N2Cc1ccc(C(F)(F)F)cc1 [Compound 152, 8-(3,4-difluorophenyl)-N-methyl-6,9-dioxo-5-(4-(trifluoromethyl)benzyl)-2,5,8-triazaspiro[3.5]nonane-2-carboxamide]"
3,3.8 µM,"CNC(=O)N1CC2(C1)C(=O)N(c1ccc(OC)cc1)CC(=O)N2Cc1ccc(C(F)(F)F)cc1 [Compound 145, 8-(4-methoxyphenyl)-N-methyl-6,9-dioxo-5-(4-(trifluoromethyl)benzyl)-2,5,8-triazaspiro[3.5]-nonane-2-carboxamide]"
4,>39 µM,"O=C1C(C2CC(O)C2)N(Cc2ccc(C(F)(F)F)cc2)C(=O)CN1c1ncc(Cl)cc1F (single isomer, unassigned) [Compound 740D, 1-(5-chloro-3-fluoropyridin-2-yl)-3-(3-hydroxycyclobutyl)-4-(4-(trifluoromethyl)benzyl)piperazine-2,5-dione]"
5,6.0 µM,"CNC(=O)N1CC2(C1)C(=O)N(C(C)C)CC(=O)N2Cc1ccc(C(F)(F)F)cc1 [Compound 67, 8-isopropyl-N-methyl-6,9-dioxo-5-(4-(trifluoromethyl)benzyl)-2,5,8-triazaspiro[3.5]-nonane-2-carboxamide]"
6,29.8 µM,CNC(=O)[C@H]1C[C@]2(C1)C(=O)N(C(C)C)CC(=O)N2Cc1ccc(C(F)(F)F)cc1 [Compound 498B]
7,0.3 µM,"Cc1cc(Cl)cnc1N1CC(=O)N(Cc2ccc(Cl)cc2)C2(CN(c3ccccn3)C2)C1=O [Compound 882, 8-(5-chloro-3-methyl-pyridin-2-yl)-5-(4-chloro-benzyl)-2-(pyridin-2-yl)-2,5,8-triazaspiro[3.5]-nonane-6,9-dione]"
